Like-named read-outs stand apart in the source and are kept apart here.
Legend:
BRD4-BD12 (1-477) = BRD4-BD12 (1-477) (Homo sapiens (Human), UniProt O60885); assay: Alphascreen binding assay BRD4-BD12; conditions: BRD4(1 2) H4; read-out: Biochemical activity (IC50 μM) BRD4(1 2) H4
Procedure, shortened: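 In this competition format, compounds displace a biotinylated tetra-acetyl H4 peptide from E. coli-expressed human BRD4 bromodomain constructs captured on nickel chelate beads. The reaction runs at pH 7.5 with 2 mM DTT and detergent for 1 h at room temperature before a 30 min bead step.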

MV-4-11 cells = assay: Oncology cell growth assay MV-4-11 (CellTiter Glo); type: cell-based
Procedure, shortened: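 Growth read by CellTiter Glo luminescence after 72 h compound treatment of MLL-AF4-bearing MV-4-11 cells (3000/well). Titration: 8 points, 1:3 steps, maximum 10 μM, 0.2% DMSO final. Data normalized to DMSO wells, four-parameter fit gives pIC50.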

[1] = Homo sapiens, MV4-11, 72 h; MV-4-11, 3d growth; read-out: Cell activity (IC50 μM) MV-4-11 3d-Growth

Structure (SMILES) | IC50 (BRD4-BD12 (1-477)) [µM] | IC50 (MV-4-11 cells; [1]) [µM] | IC50 (MV-4-11 cells; Homo sapiens, MV4-11, 72 h; read-out: Cell activity (IC50 μM) MV-4-11 3d-Growth) [µM] | IC50 (MV-4-11 cells; Homo sapiens, MV4-11, 72 h, read-out: Cell activity (IC50 μM) MV-4-11 3d-Growth) [µM]
Cc1cccc(Cn2cc(-c3ccc(C(=O)O)cc3)c3ncc(-c4c(C)noc4C)cc32)n1 [P-0916, 4-[6-(3,5-dimethylisoxazol-4-yl)-1-[(6-methyl-2-pyridyl)methyl]pyrrolo[3,2-b]pyridin-3-yl]benzoic acid] | < 1 | < 1 | – | –
COc1ccccc1Cn1cc(-c2ccc(C(=O)O)cc2)c2ncc(-c3c(C)noc3C)cc21 [P-0934, 4-[6-(3,5-dimethylisoxazol-4-yl)-1-[(2-methoxyphenyl)methyl]pyrrolo[3,2-b]pyridin-3-yl]benzoic acid] | < 1 | < 1 | – | –
CC[C@@H](c1ccccn1)n1cc(-c2ccc(C#N)cc2)c2ncc(-c3c(C)noc3C)cc21 [P-0970, 4-[6-(3,5-dimethylisoxazol-4-yl)-1-[(1S)-1-(2-pyridyl)propyl]pyrrolo[3,2-b]pyridin-3-yl]benzonitrile] | < 1 | < 1 | – | –
Cc1noc(C)c1-c1cnc2c(-c3ccc(C(C)(C)C#N)cc3)cn(CC3(C)CCOCC3)c2c1 [P-0946, 2-[4-[6-(3,5-dimethylisoxazol-4-yl)-1-[(4-methyltetrahydropyran-4-yl)methyl]pyrrolo[3,2-b]pyridin-3-yl]phenyl]-2-methyl-propanenitrile] | < 1 | < 1 | – | –
Cc1noc(C)c1-c1cnc2c(-c3ccc(C(=O)O)cc3)cn(CC3(C)CCCCC3)c2c1 [P-0912, 4-[6-(3,5-dimethylisoxazol-4-yl)-1-[(1-methylcyclohexyl)methyl]pyrrolo [3,2-b]pyridin-3-yl]benzoic acid] | < 1 | < 1 | – | –
Cc1ccc(-c2cn([C@@H](C)c3ccccn3)c3cc(-c4c(C)noc4C)cnc23)cc1 [P-0900, 3,5-dimethyl-4-[3-(p-tolyl)-1-[(1S)-1-(2-pyridyl)ethyl]pyrrolo[3,2-b]pyridin-6-yl]isoxazole] | < 1 | < 1 | – | –
Cc1noc(C)c1-c1cnc2c(-c3cnn(CC(F)(F)F)c3)cn(CC3(C)CCOCC3)c2c1 [P-0971, 3,5-dimethyl-4-[1-[(4-methyltetrahydropyran-4-yl)methyl]-3-[1-(2,2,2-trifluoroethyl)pyrazol-4-yl]pyrrolo[3,2-b]pyridin-6-yl]isoxazole] | < 1 | < 1 | – | –
Cc1ccc(-c2cn(CC3(C)CCOCC3)c3cc(-c4c(C)noc4C)cnc23)cn1 [P-0972, 3,5-dimethyl-4-[3-(6-methyl-3-pyridyl)-1-[(4-methyltetrahydropyran-4-yl)methyl]pyrrolo[3,2-b]pyridin-6-yl]isoxazole] | < 1 | < 1 | – | –
[2H]C([2H])([2H])c1noc(C([2H])([2H])[2H])c1-c1cnc2c(-c3ccc(C(=O)O)cc3)cn(CC3CCC(F)(F)CC3)c2c1 [P-0908, 4-[6-[3,5-bis(trideuteriomethyl)isoxazol-4-yl]-1-[(4,4-difluorocyclohexyl)methyl]pyrrolo [3,2-b]pyridin-3-yl]benzoic acid] | < 1 | < 1 | – | –
Cc1noc(C)c1-c1cnc2c(-c3ccc(C4(C(=O)O)CC4)cc3)cn(C(c3ccccn3)C3CCCC3)c2c1 (stereo not shown) [P-1049, 1-[4-[1-[cyclopentyl(2-pyridyl)methyl]-6-(3,5-dimethylisoxazol-4-yl)pyrrolo[3,2-b]pyridin-3-yl]phenyl]cyclopropanecarboxylic acid] | < 1 | < 1 | – | –
COc1cc(-c2cn(Cc3cccc(C)n3)c3cc(-c4c(C)noc4C)cnc23)ccc1C(=O)O [P-0941, 4-[6-(3,5-dimethylisoxazol-4-yl)-1-[(6-methyl-2-pyridyl)methyl]pyrrolo[3,2-b]pyridin-3-yl]-2-methoxy-benzoic acid] | < 1 | < 1 | – | –
COC(=O)c1ccc(-n2cc(P(=O)(c3ccccc3)c3ccccc3)c3cc(-c4c(C)noc4C)cnc32)cc1 [P-0950, methyl 4-[5-(3,5-dimethylisoxazol-4-yl)-3-diphenylphosphoryl-pyrrolo[2,3-b]pyridin-1-yl]benzoate] | < 1 | < 1 | – | –
COC(=O)Cc1ccc(-c2cn(C(c3ccccn3)C3CCCCC3)c3cc(-c4c(C)noc4C)cnc23)cc1 (stereo not shown) [P-1017, methyl 2-[4-[1-[cyclohexyl(2-pyridyl)methyl]-6-(3,5-dimethylisoxazol-4-yl)pyrrolo[3,2-b]pyridin-3-yl]phenyl]acetate] | < 1 | < 1 | – | –
Cc1noc(C)c1-c1cnc2c(-c3ccc(CC(=O)O)cc3)cn(C(c3ccccn3)C3CCCC3)c2c1 (stereo not shown) [P-0996, 2-[4-[1-[cyclopentyl(2-pyridyl)methyl]-6-(3,5-dimethylisoxazol-4-yl)pyrrolo[3,2-b]pyridin-3-yl]phenyl]acetic acid] | < 1 | < 1 | – | –
CNC(=O)c1ccc(-c2cn([C@@H](C)c3ccccn3)c3cc(-c4c(C)noc4C)cnc23)cn1 [P-0978, 5-[6-(3,5-dimethylisoxazol-4-yl)-1-[(1S)-1-(2-pyridyl)ethyl]pyrrolo[3,2-b]pyridin-3-yl]-N-methyl-pyridine-2-carboxamide] | < 1 | < 1 | – | –
Cc1noc(C)c1-c1cnc2c(I)cn(C(c3ccccn3)C3CCOCC3)c2c1 (stereo not shown) [P-1034, 4-[3-iodo-1-[2-pyridyl(tetrahydropyran-4-yl)methyl]pyrrolo[3,2-b]pyridin-6-yl]-3,5-dimethyl-isoxazole] | < 1 | < 1 | – | –
Cc1noc(C)c1-c1cnc2c(C#N)cn(C(c3ccccc3)c3ccccn3)c2c1 (stereo not shown) [P-0940, 6-(3,5-dimethylisoxazol-4-yl)-1-[phenyl(2-pyridyl)methyl]pyrrolo[3,2-b]pyridine-3-carbonitrile] | < 1 | < 1 | – | –
CNC(=O)c1ccc(-c2cn(CC3(F)CCC(F)(F)CC3)c3cc(-c4c(C)noc4C)cnc23)cn1 [P-0380, 5-[6-(3,5-dimethylisoxazol-4-yl)-1-[(1,4,4-trifluorocyclohexyl)methyl]pyrrolo[3,2-b]pyridin-3-yl]-N-methyl-pyridine-2-carboxamide] | < 1 | – | < 1 | –
CC[C@@H](c1ccccn1)n1cc(-c2ccc(CC(=O)O)cc2)c2ncc(-c3c(C)noc3C)cc21 [P-0986, 2-[4-[6-(3,5-dimethylisoxazol-4-yl)-1-[(1S)-1-(2-pyridyl)propyl]pyrrolo[3,2-b]pyridin-3-yl]phenyl]acetic acid] | < 1 | < 1 | – | –
Cc1noc(C)c1-c1cnc2c(-c3ccc(C4(C(=O)O)CC4)cc3)cn(CC3(C)CCOCC3)c2c1 [P-0943, 1-[4-[6-(3,5-dimethylisoxazol-4-yl)-1-[(4-methyltetrahydropyran-4-yl)methyl]pyrrolo[3,2-b]pyridin-3-yl]phenyl]cyclopropanecarboxylic acid] | < 1 | 1 to 10 | – | –
Cc1noc(C)c1-c1cnc2c(-c3ccc(CC(=O)O)cc3)cn(C(c3ccccn3)C3CCC3)c2c1 (stereo not shown) [P-1015, 2-[4-[1-[cyclobutyl(2-pyridyl)methyl]-6-(3,5-dimethylisoxazol-4-yl)pyrrolo[3,2-b]pyridin-3-yl]phenyl]acetic acid] | < 1 | < 1 | – | –
COC(=O)c1cc(-c2cn([C@@H](C)c3ccccn3)c3cc(-c4c(C)noc4C)cnc23)ccc1C [P-0998, methyl 5-[6-(3,5-dimethylisoxazol-4-yl)-1-[(1S)-1-(2-pyridyl)ethyl]pyrrolo[3,2-b]pyridin-3-yl]-2-methyl-benzoate] | < 1 | < 1 | – | –
COc1cccc(Cn2cc(I)c3ncc(-c4c(C)noc4C)cc32)n1 [P-0929, 4-[3-iodo-1-[(6-methoxy-2-pyridyl)methyl]pyrrolo[3,2-b]pyridin-6-yl]-3,5-dimethyl-isoxazole] | < 1 | < 1 | – | –
Cc1noc(C)c1-c1cnc2c(-c3ccc(P(=O)(O)O)cc3)cn(C(C)c3ccccc3)c2c1 (stereo not shown) [P-0928, [4-[6-(3,5-dimethylisoxazol-4-yl)-1-(1-phenylethyl)pyrrolo[3,2-b]pyridin-3-yl]phenyl]phosphonic acid] | < 1 | 1 to 10 | – | –
COC(=O)c1ccc(-c2cn(Cc3cccc(C)n3)c3cc(-c4c(C)noc4C)cnc23)cc1OC [P-0939, methyl 4-[6-(3,5-dimethylisoxazol-4-yl)-1-[(6-methyl-2-pyridyl)methyl]pyrrolo[3,2-b]pyridin-3-yl]-2-methoxy-benzoate] | < 1 | < 1 | – | –
Cc1noc(C)c1-c1cnc2c(-c3ccc(C(=O)O)cc3)cn(Cc3ncccc3F)c2c1 [P-0949, 4-[6-(3,5-dimethylisoxazol-4-yl)-1-[(3-fluoro-2-pyridyl)methyl]pyrrolo[3,2-b]pyridin-3-yl]benzoic acid] | < 1 | < 1 | – | –
COC(=O)c1ccc(-c2cn(CC3(C)CCCCC3)c3cc(-c4c(C)noc4C)cnc23)cc1 [P-0914, methyl 4-[6-(3,5-dimethylisoxazol-4-yl)-1-[(1-methylcyclohexyl)methyl]pyrrolo [3,2-b]pyridin-3-yl]benzoate] | < 1 | 1 to 10 | – | –
Cc1noc(C)c1-c1cnc2c(-c3ccc(COC(C)(C)C)cc3)cn(CC3CCC(F)(F)CC3)c2c1 [P-0910, 4-[3-[4-(tert-butoxymethyl)phenyl]-1-[(4,4-difluorocyclohexyl)methyl]pyrrolo [3,2-b]pyridin-6-yl]-3,5-dimethyl-isoxazole] | < 1 | < 1 | – | –
CCOP(=O)(OCC)c1ccc(-c2cn(C(C)c3ccccc3)c3cc(-c4c(C)noc4C)cnc23)cc1 (stereo not shown) [P-0927, 4-[3-(4-diethoxyphosphorylphenyl)-1-(1-phenylethyl)pyrrolo[3,2-b]pyridin-6-yl]-3,5-dimethyl-isoxazole] | < 1 | – | – | < 1
